Assay results: PMC9664868, “Dephospho-Coenzyme A Kinase Is an Exploitable Drug Target against Plasmodium falciparum: Identification of Selective Inhibitors by High-Throughput Screening of a Large Chemical Compound Library” (Antimicrobial Agents and Chemotherapy, 2022)
Read-outs that look alike come from different tables or passages of the source.

Experiments:
[1] = system: P. falciparum drug-sensitive 3D7 strain; experiment: Erythrocytic-stage parasite growth inhibition, diaphorase-coupled LDH assay, 3D7; assay type: cell-based, Plasmodium falciparum; details: for Selectivity index IC50 (HepG2/3D7): HepG2 IC50 / 3D7 IC50
Description: (§1) Selected hit compounds were also tested against erythrocytic-stage parasites of P. falciparum drug-sensitive 3D7 and drug-resistant Dd2 strains ([39]). For the phenotypic assay, parasite cultures were synchronized with 5% (wt/vol) D-sorbitol as previously described ([40]). A synchronized culture containing ring-stage parasites of 0.3% parasitemia was initiated with a culture volume of 25 μL/well on a 384-well plate. A series of diluted compounds (at final concentrations of 50, 10, 2, 0.4, and 0.08 μM) were used to calculate IC50 values. Mefloquine at 50 μM and atovaquone at 20 μM were used as no-growth control (100% inhibition). After 72 h of incubation, parasite growth was measured by diaphorase-coupled lactate dehydrogenase (LDH) assay as previously described ([41]). Absorbance at 650 nm was measured using SpectraMax Paradigm multimode microplate reader (Molecular Devices, San Jose, CA, USA). The IC50 values were calculated as described above.

[2] = system: P. falciparum drug-resistant Dd2 strain; experiment: Erythrocytic-stage parasite growth inhibition, diaphorase-coupled LDH assay, Dd2; assay type: cell-based, Plasmodium falciparum
Description: as §1

[3] = system: HepG2 cell line; experiment: Cytotoxicity assay (Cell Counting Kit-8); assay type: cell-based, human
Description: Cytotoxicity against human cells was evaluated using the human liver carcinoma HepG2 cell line. HepG2 cells were cultured in D-MED supplemented with 4 mM L-glutamine and 10% fetal bovine serum (FBS) in a 75-cm^2 flask (Violamo) at 37°C. For the cytotoxicity assay, HepG2 cells in semiconfluent state were detached from the flask by incubating the cells with 5 mL D-MEM containing 0.25% trypsin-EDTA. After detachment, HepG2 cells were resuspended in D-MEM-supplemented L-glutamine and FBS, and cell viability was evaluated by incubating cells with 0.4% Trypan blue on a hemocytometer. An approximately 50-μL suspension containing 3,000 cells was dispensed into each well on a 384-well clear-bottom plate using a Multidrop Combi dispenser. Compounds dissolved in DMSO had been dispensed into wells to yield final concentrations of 100, 20, 4, 0.8, and 0.2 μM before cells were added. After cells were added to the plates, they were cultured at 37°C under 5% CO2. After 48 h cultivation, 5 μL of Cell Counting Kit-8 (Dojindo, Japan) was added, and the plates were further incubated for 2 h to assess cell growth and survival.

[4] = target: PfDPCK (Plasmodium falciparum, UniProt Q8IL34); experiment: PfDPCK inhibition, enzyme-coupled fluorescence ADP detection assay (HTS and IC50 determination); assay type: biochemical
Chain of PfDPCK (Q8IL34 entry or part of it): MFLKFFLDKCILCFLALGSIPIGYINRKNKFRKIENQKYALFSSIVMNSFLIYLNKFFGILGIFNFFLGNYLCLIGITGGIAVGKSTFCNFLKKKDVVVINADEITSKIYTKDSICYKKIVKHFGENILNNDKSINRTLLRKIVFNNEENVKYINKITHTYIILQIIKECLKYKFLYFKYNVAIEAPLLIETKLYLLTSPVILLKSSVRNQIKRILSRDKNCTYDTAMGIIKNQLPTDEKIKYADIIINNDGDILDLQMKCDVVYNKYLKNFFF
Description: High-throughput screening against recombinant PfDPCK was performed using the Drug Discovery Initiative (DDI) full library, available from The University of Tokyo, composed of approximately 210,000 compounds. The primary assay was performed on 1,536-well white plate format with a final volume of 2 μL/well, containing 10 μM test compounds using a Multidrop Combi reagent dispenser (Thermo Fisher Scientific, Waltham, MA). The reaction was conducted in the assay buffer described above with 100 μM ATP and 50 μM dephospho-CoA. The assay was carried out at room temperature for 4 h in a closed plastic container with wet tissues. The reaction was stopped, and produced ADP was quantified using an enzyme-coupled fluorescence ADP detection assay, using PHERAstar microplate reader (BMG Labtech, Offenburg, Germany) with excitation at 540 nm and emission at 590 nm, as previously described ([17]). The inhibition level was calculated as the percentage inhibition of DPCK activity with each compound compared to the activity with only dimethyl sulfoxide (DMSO) as control (no inhibition) and that with no enzyme as 100% inhibition. IC50 values of the hit compounds were determined under the same assay conditions for the screening: Z′ factor, signal-to-background ratio (S/B), signal-to-noise ratio (S/N), and coefficient of variation (CV) were calculated to estimate the quality of screening system as previously described ([18], [38]).
The primary hits were reassayed in quadruplicate (n = 4) as in the primary screening. We next tested the confirmed secondary hits to exclude false positives that inhibit coupled fluorescence assay, but not PfDPCK. After exclusion of false positives, all tertiary hits were tested against human HsCOASY in the counterassay to exclude compounds that inhibit both PfDPCK and HsCOASY. The compounds showing >10% inhibition against HsCOASY were excluded from further studies. The IC50 values of the hit compounds were determined under the same assay conditions described as above for the primary screening, with the serially diluted compounds at 20, 10, 2.5, 0.5, and 0.1 μM at final concentrations. The assay was conducted in quadruplicate for each dilution, and IC50 values were calculated using GraphPad Software (San Diego, California USA).

[5] = Homo sapiens, HepG2, 48 h, means ± SEMs, read-out: IC50 (μM) of: HepG2
[6] = Plasmodium falciparum, drug-sensitive 3D7, 72 h, means ± SEMs, read-out: IC50 (μM) of: Pf cell 3D7
[7] = Plasmodium falciparum, drug-resistant Dd2, 72 h, means ± SEMs, read-out: IC50 (μM) of: Pf cell Dd2
[8] = recombinant enzyme, means ± SEMs, read-out: IC50 (μM) of: PfDPCK
[9] = Homo sapiens, HepG2, ND (maximum concentration tested 100 μM), read-out: IC50 (μM) of: HepG2

SMILES | IC50 [1, 6] | IC50 [2, 7] | IC50 [4, 8] | Selectivity index IC50 (HepG2/3D7) [1] | Selectivity index IC50 (HepG2/Dd2) [2] | IC50 [3, 5] | further results
O=C1C(O)=C([C@H]2CC[C@H](c3ccc(Cl)cc3)CC2)C(=O)c2ccccc21 [Atovaquone, reference compound] |  |  |  | 363,181 | 499,375 | 79.9 ± 1.79 µM | IC50 ([1]; Plasmodium falciparum, drug-sensitive 3D7, value in nM, read-out: IC50 of: Pf cell 3D7): 0.22 ± 0.03 nM; IC50 ([2]; Plasmodium falciparum, drug-resistant Dd2, value in nM, read-out: IC50 of: Pf cell Dd2): 0.16 ± 0.028 nM
CNc1nc(NC(C)(C)C)nc(NC(C)(C)C)n1 [Compound A-2] | 4430 ± 40 nM | 980 ± 500 nM | 0.4 ± 0.07 µM | >23 | >102 | > 100 µM | 
CCCn1c(C)cc(-c2csc(NC(=O)C3CC3)n2)c1C [Compound A-4] | 4450 ± 50 nM | 1590 ± 230 nM | 0.52 ± 0.09 µM |  |  |  | IC50 [3, 9]: > 100 µM
CCNC(=N)SCc1c(C)c(C)c(C)c(C)c1C [Compound A-7] | 1100 ± 110 nM | 130 ± 10 nM | 1.09 ± 0.03 µM | 8.2 | 69.5 | 9.04 ± 0.01 µM | 
CCOc1ccc(-n2cc(-c3ccccc3)c3c(NCCN(C)C)ncnc32)cc1 [Compound A-17] |  |  |  |  |  |  | IC50 ([1]; Plasmodium falciparum, 3D7, Table S1, means ± SEM, read-out: IC50 (μM) Pf cell 3D7): 22900 ± 1870 nM; IC50 ([2]; Plasmodium falciparum, DD2, Table S1, means ± SEM, read-out: IC50 (μM) Pf cell Dd2): 2700 ± 440 nM; IC50 ([3]; Homo sapiens, HepG2, Table S1, means ± SEM, read-out: IC50 (μM) HepG2): 8.45 ± 0.35 µM; IC50 ([4]; Table 2, PfDPCK inhibitor scaffolds Gr4, Gr5, Gr8, read-out: IC50): 2.15 ± 0.07 µM
CCOC(=O)C1NC(c2ccc[n+](C)c2)C23c4c5c6c7c8c9c(c%10c%11c2c2c4c4c%12c5c5c6c6c8c8c%13c9c9c%10c%10c%11c%11c2c2c4c4c%12c%12c5c5c6c8c6c8c%13c9c9c%10c%10c%11c2c2c4c4c%12c5c6c5c8c9c%10c2c45)C713 (centres unmarked) [Compound A-22] |  |  |  |  |  |  | IC50 ([1]; Plasmodium falciparum, 3D7, 72 h, read-out: IC50 (μM) of: Pf cell 3D7): 30600 ± 1500 nM; IC50 ([2]; Plasmodium falciparum, DD2, 72 h, read-out: IC50 (μM) of: Pf cell Dd2): 6320 ± 350 nM; IC50 ([3]; Homo sapiens, HepG2, read-out: IC50 (μM) of: HepG2): > 100 µM; IC50 [4]: 3.25 ± 0.02 µM
CCOC(=O)CN1C(C(=O)OCC)C23c4c5c6c7c8c9c(c%10c%11c2c2c4c4c%12c5c5c6c6c8c8c%13c9c9c%10c%10c%11c%11c2c2c4c4c%12c%12c5c5c6c8c6c8c%13c9c9c%10c%10c%11c2c2c4c4c%12c5c6c5c8c9c%10c2c45)C73C1c1cc[n+](C)cc1 (centres unmarked) [Compound A-23] |  |  |  |  |  |  | IC50 ([1]; drug-sensitive 3D7, 72 h, means ± SEMs, read-out: IC50 (μM) of: Pf cell 3D7): 4470 ± 120 nM; IC50 ([2]; drug-resistant Dd2, 72 h, means ± SEMs, read-out: IC50 (μM) of: Pf cell Dd2): 7420 ± 460 nM; IC50 ([3]; ND (maximum concentration tested 100 μM), read-out: IC50 (μM) of: HepG2): > 100 µM; IC50 [4]: 3.31 ± 0.02 µM

More lines, main results first:

IC50 [1, 6] | IC50 [2, 7] | IC50 [4, 8] | SMILES | Selectivity index IC50 (HepG2/3D7) [1] | Selectivity index IC50 (HepG2/Dd2) [2] | IC50 [3, 5] | further results
1300 ± 60 nM | 3400 ± 350 nM | 1.69 ± 0.05 µM | Nc1nc(Nc2cccc(F)c2)nc2ccccc12 [Compound A-13] |  |  |  | IC50 [3, 9]: > 100 µM
2210 ± 70 nM | 230 ± 10 nM | 2.09 ± 0.04 µM | Cc1ccc(S(=O)(=O)Nc2cc(Cl)c(O)c3ccccc23)c(C)c1 [Compound A-16] | 17.9 | 171.7 | 39.6 ± 2.3 µM | 
3640 ± 40 nM | 2650 ± 130 nM | 2.55 ± 0.03 µM | Cc1cc(-c2csc(NC3CC3)n2)c(C)n1CCC1=CCCCC1 [Compound A-19] | 22.4 | 30.8 | 81.5 µM | 
1640 ± 30 nM | > 50000 nM | 3.45 ± 0.07 µM | Cc1cc(Nc2cc3ccccc3cc2O)n2ncnc2n1 [Compound A-25] |  |  |  | IC50 [3, 9]: > 100 µM
